Laboratory results taken from US12570666B2, “Furoindazole derivatives” (Bayer Aktiengesellschaft, priority 2019, dated 2026).

Biological target: T1, human GPR84 receptor (Homo sapiens, UniProt Q9NQS5)
T1 construct: frozen aliquots prepared by acCELLerate; host or cells: CHO-K1
Assay: cAMP HTRF assay for identification of cellular GPR84 antagonists
Assay type: cell-based
Settings: CHO-K1 cells stably expressing human GPR84; Forskolin + agonist 6-OAU (EC80); average or median values
Source text: cAMP HTRF® Assay for Identification of Cellular GPR84 Antagonists
By using a Homogenous Time-Resolved Fluorescence (HTRF®) based assay (#62AM5PEJ, Cisbio, Condolet, France) the inhibition of the Gi-coupled GPR84 receptor can be detected. CHO-K1 cells stably expressing human GPR84 receptor (purchased from DiscoveRx, now Eurofins) were used and treated with Forskolin (F6886, Sigma, Germany) to stimulate membrane adenylyl cyclases and thereby unspecific cAMP formation. Activation of the Gi-coupled GPR84 by a natural or small molecule agonist (e.g. 6-n-octyl aminouracile, inhouse) results in inhibition of cellular cAMP formation which can be released again by antagonists to this receptor. Detection and quantification of cellular cAMP levels in this HTRF assay is achieved by interaction between a fluorescent cAMP tracer (cAMP-d2) and an Eu-cryptate labelled anti-cAMP antibody. Following excitation at 337 nm this pairing allows for the generation of a fluorescence resonance energy transfer (FRET) between the partners and results in FRET induced emissions at 665 nm and 620 nm, the latter representing background signal by Eu-cryptate labelled anti-cAMP antibody. Maximal signal is obtained in the absence of any cellular cAMP (no competition for the binding of the tracer to the antibody). Given the combination of the Gi coupling properties of GPR84 and the competitive nature of the detection system agonist treatment should result in an increase in the HTRF signal due to lowered cAMP levels. Any signal decrease in the presence of Forskolin, agonist and compound is indicative of antagonist mediated abrogation of GPR84 signalling.
For the assay, frozen aliquots of CHO-K1 cells expressing hGPR84 (prepared by acCELLerate, Hamburg, Germany) were thawed and a cell suspension (1.67E+06 cells/mL) in assay media (Ham's F12 Nutrient Mix, Thermo Fisher Scientific, Waltham, USA; 5% fetal calf serum, Biomol, Hamburg, Germany) containing cAMP-d2 (dilution 1:20, supplied with the kit #62AM5PEJ, Cisbio, Condolet, France) was prepared. After recovery of cells for 20 minutes at 37° C., 3 μL/well cell suspension including cAMP-d2 were added to a pre-dispensed assay plate (Greiner Bio-One, Kremsmuenster, Austria) containing 50 nl/well test compound in 100% DMSO or 100% DMSO as control. This was followed by a 30 minutes incubation step at room temperature. […] The reaction was stopped by addition of 3 μL/well lysis buffer containing cAMP Eu-Cryptate antibody (dilution 1:20) (both supplied with the kit #62AM5PEJ, Cisbio, Condolet, France). To enable complete lysis, plates were incubated for 60 minutes at room temperature before measurement in an HTRF reader, e.g. a PHERAstar (BMG Labtech, Ortenberg, Germany).
From the fluorescence emissions at 665 nm (FRET) and at 620 nm (background signal of Eu-cryptate) the ratio (emission at 665 nm divided by emission at 620 nm×10000) was calculated and the data were normalized (reaction without test compound, only 100% DMSO=0% inhibition; all other assay components except agonist=100% inhibition). For dose response testing on the same microtiter plate, compounds were tested at 11 different concentrations in the range of 20 μM to 0.07 nM (20 μM, 5.7 μM, 1.6 μM, 0.47 μM, 0.13 μM, 38 nM, 11 nM, 3.1 nM, 0.89 nM, 0.25 and 0.07 nM; dilution series prepared before the assay at the level of the 100-fold conc. stock solutions by serial 1:3.5 dilutions in 100% DMSO) in duplicate values for each concentration. IC50 values were calculated by 4-parameter fitting using a commercial software package (Genedata Screener, Basel, Switzerland).
Examples were tested in selected biological assays one or more times. […]

T1 sequence (Q9NQS5 whole entry): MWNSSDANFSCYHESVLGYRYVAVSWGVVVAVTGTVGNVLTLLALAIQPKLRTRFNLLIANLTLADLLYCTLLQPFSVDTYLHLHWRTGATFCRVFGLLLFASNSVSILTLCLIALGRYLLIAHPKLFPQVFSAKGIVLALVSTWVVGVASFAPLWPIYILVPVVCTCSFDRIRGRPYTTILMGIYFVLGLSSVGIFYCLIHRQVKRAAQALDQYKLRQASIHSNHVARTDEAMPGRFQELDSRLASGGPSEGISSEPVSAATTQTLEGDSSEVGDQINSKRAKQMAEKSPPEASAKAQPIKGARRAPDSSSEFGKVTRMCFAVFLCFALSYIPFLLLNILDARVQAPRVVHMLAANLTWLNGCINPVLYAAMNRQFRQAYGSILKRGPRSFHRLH

| IC50 [nM] | SMILES |
| --- | --- |
| 17 | Cc1ccc(Cn2cc3c(n2)-c2c(oc(C(=O)NC[C@@H]4CCCO4)c2C)CC32CC2)cn1 [Example 211] |
| 13 | C[C@@H]1Cc2oc(C(=O)NC[C@@H]3CCCO3)c(C(F)(F)F)c2-c2nn(CC3CCOCC3)cc21 [Example 264, (4 or 4S)-4-methyl-2-[(oxan-4-yl)methyl]-N-{[(2S)-oxolan-2-yl]methyl}-8-(trifluoromethyl)-4,5-dihydro-2H-furo[2,3-g]indazole-7-carboxamide] |
| 29 | O=C(NC[C@@H]1COCCO1)c1oc2c(c1C(F)(F)F)-c1nn(CC3CCOCC3)cc1CC2 [Example 242, N-{[(2R)-1,4-dioxan-2-yl]methyl}-2-[(oxan-4-yl)methyl]-8-(trifluoromethyl)-4,5-dihydro-2H-furo[2,3-g]indazole-7-carboxamide] |
| 270 | Cc1c(C(=O)NC[C@@H]2COCCO2)oc2c1-c1nn(C(=O)N(C)C)cc1C1(CC1)C2 [Example 154] |
| 8 | CC(=O)N1CCC(Cn2cc3c(n2)-c2c(oc(C(=O)NC[C@@H]4COCCO4)c2C(F)(F)F)C[C@H]3C)CC1 (single isomer, unassigned) [Example 294, (4R or 4S)-2-[(1-acetylpiperidin-4-yl)methyl]-N-{[(2R)-1,4-dioxan-2-yl]methyl}-4-methyl-8-(trifluoromethyl)-4,5-dihydro-2H-furo[2,3-g]indazole-7-carboxamide] |
| 27 | Cc1c(C(=O)NC[C@@H]2CCCO2)oc2c1-c1nn(Cc3ncccc3Cl)cc1CC2 [Example 60, 2-[(3-chloropyridin-2-yl)methyl]-8-methyl-N-[(2S)-tetrahydrofuran-2-ylmethyl]-4,5-dihydro-2H-furo[2,3-g]indazole-7-carboxamide] |
| 2760 | Cc1c(C(=O)NCCN2CCN(c3ccc(C(F)(F)F)cn3)CC2)oc2c1-c1nn(Cc3ccccn3)cc1CC2 [Example 12, 8-methyl-2-(pyridin-2-ylmethyl)-N-(2-{4-[5-(trifluoromethyl)pyridin-2-yl]piperazin-1-yl}ethyl)-4,5-dihydro-2H-furo[2,3-g]indazole-7-carboxamide] |
| 122 | Cc1c(C(=O)NC[C@@H]2CCCO2)oc2c1-c1nn(C[C@H]3COCCO3)cc1C(C)C2 (mixture of isomers) [Example 249, (4±)-2-{[(2S)-1,4-dioxan-2-yl]methyl}-4,8-dimethyl-N-{[(2S)-oxolan-2-yllmethyl}-4,5-dihydro-2H-furo[2,3-g]indazole-7-carboxamide] |
| 6 | CC1Cc2oc(C(=O)NC[C@@H]3COCCO3)c(C(F)(F)F)c2-c2nn(C[C@H]3COCCO3)cc21 (mixture of isomers) [Example 254, (4±)-N-{[(2R)-1,4-dioxan-2-yl]methyl}-2-{[(2S)-1,4-dioxan-2-yl]methyl}-4-methyl-8-(trifluoromethyl)-4,5-dihydro-2H-furo[2,3-g]indazole-7-carboxamide] |
| 197 | O=C(NC[C@@H]1COCCO1)c1oc2c(c1C(F)(F)F)-c1nn(CC3CCN(CC4CC4)CC3)cc1CC2 [Example 310, 2-{[1-(cyclopropylmethyl)piperidin-4-yl]methyl}-N-{[(2R)-1,4-dioxan-2-yl]methyl}-8-(trifluoromethyl)-4,5-dihydro-2H-furo[2,3-g]indazole-7-carboxamide] |
| 80 | Cc1c(C(=O)NC[C@@H]2CCCO2)oc2c1-c1nn(CCNC(=O)OC(C)(C)C)cc1CC2 [Example 139, tert-butyl [2-(8-methyl-7-{[(2S)-tetrahydrofuran-2-ylmethyl]carbamoyl}-4,5-dihydro-2H-furo[2,3-g]indazol-2-yl)ethyl]carbamate] |
| 20 | O=C(NCC1CC(F)(F)CO1)c1oc2c(c1C(F)(F)F)-c1nn(C[C@H]3COCCO3)cc1CC2 (mixture of isomers) [Example 222, N-{[(2±)-4,4-difluorooxolan-2-yl]methyl}-2-{[(2S)-1,4-dioxan-2-yl]methyl}-8-(trifluoromethyl)-4,5-dihydro-2H-furo[2,3-g]indazole-7-carboxamide] |
| 5 | Cc1ccc(Cn2cc3c(n2)-c2c(oc(C(=O)NC[C@@H]4CCCO4)c2C(F)(F)F)CC3C)cn1 (mixture of isomers) [Example 253, (4±)-4-methyl-2-[(6-methylpyridin-3-yl)methyl]-N-{[(2S)-oxolan-2-yl]methyl}-8-(trifluoromethyl)-4,5-dihydro-2H-furo[2,3-g]indazole-7-carboxamide] |
| 5 | CC1Cc2oc(C(=O)NC[C@@H]3CCCO3)c(C(F)(F)F)c2-c2nn(C[C@H]3COCCO3)cc21 (mixture of isomers) [Example 255, (4±)-2-{[(2S)-1,4-dioxan-2-yl]methyl}-4-methyl-N-{[(2S)-oxolan-2-yl]methyl}-8-(trifluoromethyl)-4,5-dihydro-2H-furo[2,3-g]indazole-7-carboxamide] |
| 670 | Cc1c(C(=O)NC[C@@H]2COCCO2)oc2c1-c1nn(CCN3CCN(C(=O)OC(C)(C)C)CC3)cc1CC2 [Example 142, tert-butyl 4-[2-(7-{[(2R)-1,4-dioxan-2-ylmethyl]carbamoyl}-8-methyl-4,5-dihydro-2H-furo[2,3-g]indazol-2-yl)ethyl]piperazine-1-carboxylate] |
| 21 | O=C(NC[C@@H]1COCCO1)c1oc2c(c1C(F)(F)F)-c1nn(Cc3ccncc3)cc1C1(CCC1)C2 [Example 281, N-[(2R)-1,4-Dioxan-2-ylmethyl]-2′-(pyridin-4-ylmethyl)-8′-(trifluormethyl)-2′,5′-dihydrospiro[cyclobutan-1,4′-furo[2,3-g]indazol]-7′-carboxamide] |
| 2540 | Cc1c(C(=O)NC[C@@H]2CCCO2)oc2c1-c1nn(CCN)cc1CC2 [Example 160, 2-(2-aminoethyl)-8-methyl-N-[(2S)-tetrahydrofuran-2-ylmethyl]-4,5-dihydro-2H-furo[2,3-g]indazole-7-carboxamide] |
| 2600 | Cc1c(C(=O)NC[C@H]2OCC[C@H]2C)oc2c1-c1nn(Cc3ccccn3)cc1CC2 (racemic) [Example 177] |
| 139 | COCC(=O)N1CCC(Cn2cc3c(n2)-c2c(oc(C(=O)NC[C@@H]4COCCO4)c2C(F)(F)F)CC3)CC1 [Example 283, N-{[(2R)-1,4-dioxan-2-yl]methyl}-2-{[1-(methoxyacetyl)piperidin-4-yl]methyl}-8-(trifluoromethyl)-4,5-dihydro-2H-furo[2,3-g]indazole-7-carboxamide] |
| 960 | Cc1c(C(=O)NCC2CCC(=O)O2)oc2c1-c1nn(Cc3ccccn3)cc1CC2 (racemic) [Example 39, 8-methyl-N-{[(2R/S)-5-oxotetrahydrofuran-2-yl]methyl}-2-(pyridin-2-ylmethyl)-4,5-dihydro-2H-furo[2,3-g]indazole-7-carboxamide] |
| 70 | CCOc1cnc(Cn2cc3c(n2)-c2c(oc(C(=O)NC[C@@H]4CCCO4)c2C)CC3)c(Cl)c1 [Example 59, 2-[(3-chloro-5-ethoxypyridin-2-yl)methyl]-8-methyl-N-[(2S)-tetrahydrofuran-2-ylmethyl]-4,5-dihydro-2H-furo[2,3-g]indazole-7-carboxamide] |
| 9 | Cc1c(C(=O)NC[C@@H]2CCCO2)oc2c1-c1nn(CC3CN(C(=O)OCc4ccccc4)C3)cc1CC2 [Example 156, benzyl 3-[(8-methyl-7-{[(2S)-tetrahydrofuran-2-ylmethyl]carbamoyl}-4,5-dihydro-2H-furo[2,3-g]indazol-2-yl)methyl]azetidine-1-carboxylate] |
| 170 | Cc1c(C(=O)NCc2ccn(C)n2)oc2c1-c1nn(C[C@H]3COCCO3)cc1C1(CC1)C2 [Example 127, 2′-[(2S)-1,4-dioxan-2-ylmethyl]-8′-methyl-N-[(1-methyl-1H-pyrazol-3-yl)methyl]-2′,5′-dihydrospiro[cyclopropane-1,4′-furo[2,3-g]indazole]-7′-carboxamide] |
